Measurements taken from US20260248767A1, “METHODS FOR INDUCING FERROPTOSIS IN CANCER” (Board of Regents, The University of Texas System, priority 2023, published 2026).

Tests used:
[1] = test system: HT-1080 cells; assay: Relative mitochondrial lipid peroxidation level; assay type: cell-based, human; conditions: combined with RSL3, compared to RSL3 alone
[2] = test system: one-carbon metabolism; assay: dTTP levels and labelling (serine through one-carbon metabolism); assay type: cell-based; conditions: sulfite vs vehicle treated samples, over time
Method: The total dTTP, M+1dTTP and M+2 dTT were measured in the presence or absence of sulfite.
The complete platform consists of an Accela 1250 HPLC system, Accela Open Autosampler, MayLab Mistraswitch column oven and Exactive orbitrap mass spectrometer, controlled by the Xcalibur 3.0.63 software package. Chromatography was performed with a Phenomenex Synergi Hydro-RP column (100×2 mm, 2.5 μm particle size). Solvent A is 10 mM tributylamine and 15 mm acetic acid in water; Solvent B is methanol. The gradient is: 0 min, 0% B; 2.5 min, 0% B; 5 min, 20% B; 7.5 min, 20% B; 13 min, 55% B; 15.5 min, 95% B; 18.5 min, 95% B; 19 min, 0% B; 25 min, 0% B. The injection volume was 10 μl. The column temperature was set to 40° C., and the flow rate was 200 μl/min. The Exactive was operated in negative ionization mode with an electrospray ionization interface. The instrument parameters are as follows: sheath gas flow rate 30 (arbitrary units), aux gas flow rate 10 (arbitrary units), sweep gas flow rate 3 (arbitrary units), spray voltage 3 kV, capillary temperature 325° C., capillary voltage −25 V, tube lens voltage −50 V. The scan range was set to 80-1,000 m/z, with a maximum inject time of 250 ms, resolution of 100,000 at 1 Hz, and AGC (automatic gain control) target 1×10^6. The data were analyzed using the MAVEN software suite with signal intensity determined as the Peak Area (Top). For metabolic labelling experiments, the data were corrected to account for the natural abundance of nitrogen-15 using IsoCorrectoR (Heinrich, P. et al. Sci Rep 8, 17910, doi: 10.1038/s41598-018-36293-4 (2018)).

[3] = test system: oxidative PPP; assay: Oxidative PPP flux calculation (1,2-[13C2] glucose); assay type: cell-based; conditions: sulfite vs vehicle treated cells
Method: Cells were seeded in six-well plates and incubated overnight, then given 2 ml of fresh medium containing 25 mM 1,2-[13C2] glucose. Aliquots of this medium were frozen and stored for analysis to determine the initial glucose concentration, and cells in replicate plates were trypsinized and counted to determine initial cell numbers. After 24 h, the spent medium was extracted as above and frozen until analysis, and the cells were trypsinized and counted to determine the final cell numbers.
For lactate isotopomer analysis the samples were analyzed directly. The relative quantities of M0, M1, M2 and M3 lactate were corrected for natural carbon-13 abundance using the IsoCorrectoR software package (Heinrich, P. et al. Sci Rep 8, 17910, doi: 10.1038/s41598-018-36293-4 (2018)). and the oxidative PPP-shunting ratio was calculated by taking the ratio M1/(M1+M2) (Badur, M. G. et al. Cell Rep 25, 1680, doi: 10.1016/j.celrep.2018.10.099 (2018)); since there is no difference in growth rates between the vehicle and sulfite treated cell lines, it is assumed that the biosynthetic demand for ribose-5-phosphate or any other PPP intermediate is the same in each case, so any increase in this ratio reflects an increase in NADPH production by the oxidative PPP.

[4] = test system: SHMT2; assay: Protein level after sulfite treatment (Western blotting), SHMT2; assay type: cell-based; conditions: following treatment with sulfite
Method: To test if sulfite changed mitochondrial protein levels, SHMT2 and MTHFD2 protein levels were measured following treatment with sulfite. No changes in protein levels were observed (FIG. 9).
Briefly, cells were lysed in NP-40 lysis buffer (50 mM Tris [pH 7.4], 250 mM NaCl, 5 mM EDTA, 50 mM NaF, 1 mM Na3VO4, 1% Nonidet P40) containing complete mini protease inhibitors (Roche). The protein concentration of lysates was quantified using BCA Protein Assay Kit from Life Technologies (#23227). 20 μg of total protein was loaded into SDS-PAGE gel and transferred to a PVDF membrane (Bio-Rad) using standard techniques. The primary antibodies and concentrations used for Western blotting were Vinculin (1:1000, Sigma-Aldrich, #V4505), SUOX (1:1000, Abcam, #ab129094), SHMT2 (1:1000, Sigma-Aldrich, #HPA-020549), IDH1 (1:1000, Proteintech, #12332-1-AP), ME1 (1:1000,), MTHFD2 (1:1000, Abcam, #ab56772), Flag (1:1000, Sigma, #F1804), GPX4 (1:1,000, R&D, #MAB5457), COQ2 (1:1,000, Santa Cruz, sc-517107) and FSP1 (1:1000, Proteintech, #20886-1-AP).

[5] = test system: HT-1080, 786-O, U87, T98G, RCC4, H1299, A549, Hela and Hs578T; assay: Cell death assay (PI flow cytometry), panel of cancer cell lines; assay type: cell-based, human
Method: All cell lines used in this study were free of mycoplasma contamination (per testing done by the vendor). All the cells were cultured in a 37° C. incubator in a 5% CO2 atmosphere. H1299 cells were cultured in RPMI-1640 medium supplemented with 10% fetal bovine serum and 10,000 U/mL penicillin-streptomycin. HT-1080, 786-O, U87, T98G, RCC4, A549, Hela and Hs578T cells were cultured in Dulbecco modified Eagle medium (DMEM) supplemented with 10% fetal bovine serum and 10,000 U/mL of penicillin-streptomycin.
After treatment, cells were trypsinized and collected. […] All experiments were performed in triplicates.

[6] = test system: HT-1080 cells; assay: Cell viability assay (CCK-8); assay type: cell-based, human
Method: Cell viability was measured using a Cell Counting Kit-8 (CCK-8, Dojindo) as previously described (Koppula, P., et al. J Biol Chem 292, 14240-14249, doi: 10.1074/jbc.M117.798405 (2017); Liu, X. et al. Nat Cell Biol 18, 431-442, doi: 10.1038/ncb3328 (2016)). In brief, cells were seeded onto 96-well plates at a density of 1×10^4 per well. The next day, cells were treated with indicated compound for 16-20 h. Subsequently, cells were changed to new 100 μl medium containing 10 μl CCK-8 reagent for 1 h at 37° C., 5% CO2 in incubator. The absorbance at 450 nm was determined using a FLUOstar Omega microplate reader (BMG Labtech).

[7] = test system: NADP+/NADPH; assay: NADP+ and NADPH measurement; assay type: cell-based; conditions: treated vs untreated cells

For `O=S([O-])[O-].[Na+].[Na+]` [sulfite, sodium sulfite], the “relative mitochondrial lipid peroxidation level in combination with RSL3” value [1] was “significantly increased”, the “M+1dTTP” value [2] was “decreased over time” and the “M+2 dTT” value [2] was “decreased over time”. For the same molecule, the “total dTTP” value [2] was “decreased over time”, the oxPPP shunting [3] was “increase” and the SHMT2 protein level [4] was “No changes”. The “ferroptosis (cell death) in combination with RSL3” value ([5]; RSL3 0.2-2.0 μm plus sulfite 0.5-2 mM depending on cell line) was “induced statistically significant ferroptosis”, the “induction of ferroptosis (cell death)” value ([5]; sulfite alone, 0.5-2 mM depending on cell line) was “did not show induction of ferroptosis” and the “cell viability when combined with different concentrations of RSL3” value ([6]; combined with RSL3, range of concentrations) was “reduces cell viability”. For the same molecule, the “sensitization effect on cell viability in SHMT2 knock out cells” value ([6]; sulfite plus multiple concentrations of RSL3, SHMT2 knock out vs wild type) was “much weaker than in wild type cells” and the “NADP+/NADPH ratio” value [7] was “increase”.
